Assay results taken from patent US11008290B2, “Halogenated quinoline derivatives as antimicrobial agents” (University of Florida Research Foundation, Incorporated, priority 2015, dated 2021).
≈ marks a conversion by molar mass, not a printed value. Where two headings read alike, the source gives them in different places.

Experiments:
[1] = tested on: methicillin-resistant Staphylococcus aureus-2 (MRSA-2; clinical isolate); assay: Minimum inhibitory concentration (MIC) susceptibility assay, broth microdilution; type: cell-based
Procedure: (§1) The minimum inhibitory concentration (MIC) for each compound was determined by the broth microdilution method as recommended by the Clinical and Laboratory Standards Institute (CLSI). In a 96-well plate, eleven two-fold serial dilutions of each compound were made in a final volume of 100 μL Luria Broth. Each well was inoculated with ˜10^5 bacterial cells at the initial time of incubation, prepared from a fresh log phase culture (OD600 of 0.5 to 1.0 depending on bacterial strain). […] The concentration range tested for each compound during this study was 0.10 to 100 μM. DMSO served as the vehicle and negative control in each microdilution MIC assay. DMSO was serially diluted with a top concentration of 1% v/v. Bacterial strains used: methicillin-resistant Staphylococcus aureus-2 (MRSA-2; clinical isolate from Shands Hospital in Gainesville, Fla.), methicillin-resistant Staphylococcus epidermidis (MRSE; ATCC 35984), vancomycin-resistant Enterococcus faecium (VRE, ATCC 700221).

[2] = tested on: methicillin-resistant Staphylococcus epidermidis (MRSE; ATCC 35984); assay: as above; type: cell-based; conditions: for MIC: read-out: MRSE MIC
Procedure: as §1

[3] = tested on: vancomycin-resistant Enterococcus faecium (VRE, ATCC 700221); assay: as above; type: cell-based; conditions: read-out: VRE MIC
Procedure: as §1

[4] = tested on: MRSA-2 planktonic cells and biofilms; assay: Calgary Biofilm Device (CBD) MBC/MBEC determination; type: cell-based, Staphylococcus aureus; conditions: for MBC: Staphylococcus aureus, MRSA
Procedure: (§2) Biofilm eradication experiments were performed using the Calgary Biofilm Device to determine MBC/MBEC values for various compounds of interest (Innovotech, product code: 19111). The Calgary device (96-well plate with lid containing 96 total pegs to establish biofilms; 1 peg/well) was inoculated with 125 μL of a mid-log phase culture diluted 1,000-fold in tryptic soy broth with 0.5% glucose (TSBG) to establish bacterial biofilms after incubation at 37° C. for 24 hours. The lid of the Calgary device was then removed, washed and transferred to another 96-well plate containing 2-fold serial dilutions of the test compounds (the “challenge plate”). The total volume of media with compound in each well in the challenge plate was 150 μL. The Calgary device was then incubated at 37° C. for 24 hours. The lid was then removed from the challenge plate and MBC/MBEC values were determined using different final assays. […] The MBC values were determined as the concentration giving a lack of visible bacterial growth (e.g., turbidity). For determination of MBEC values, the Calgary device lid (with attached pegs/treated biofilms) was transferred to a new 96-well plate containing 150 μL of fresh TSBG media in each well and incubated for 24 hours at 37° C. to allow viable biofilms to grow and disperse resulting in turbidity after the incubation period. […] In select experiments, treated pegs from the Calgary device were removed from lead biofilm eradicators after final incubation, sonicated for 30 minutes in PBS and plated out to determine biofilm cell killing (e.g., colony forming unit per milliliter, CFU/mL).

[5] = tested on: MRSE (ATCC 35984) planktonic cells and biofilms; assay: as above; type: cell-based, Staphylococcus epidermidis; conditions: for MBC: Staphylococcus epidermidis, planktonic killing, CBD, first value of cell
Procedure: as §2

[6] = tested on: VRE (ATCC 700221) planktonic cells and biofilms; assay: as above; type: cell-based, Enterococcus faecium; conditions: Enterococcus
Procedure: as §2

human red blood cells = assay: Hemolysis assay; type: cell-based
Procedure: Freshly drawn human red blood cells (hRBC with ethylenediaminetetraacetic acid (EDTA) as an anticoagulant) were washed with Tris-buffered saline (0.01M Tris-base, 0.155M sodium chloride (NaCl), pH 7.2) and centrifuged for 5 minutes at 3500 rpm. The washing was repeated three times with the buffer. In 96-well plate, the test compounds were added to the buffer. […] The plate was then incubated for 1 hour at 37° C. After incubation, the plate is centrifuged for 5 minutes at 3500 rpm. Then 80 μL of the supernatant were transferred to another 96-well plate and the Optical Density (OD) was read at 405 nm. […] The percent of hemolysis was calculated as (OD405 of the compound-OD405 DMSO)/(OD405 Triton X-OD405 buffer).

MRSA-2 = assay: Mechanistic investigations with metal(II)-cations (MIC assay with 200 μM metal salt); type: cell-based, Staphylococcus aureus; conditions: for MIC: Staphylococcus aureus
Procedure: as §1

[7] = Staphylococcus, MRSA, Table 3, at least three independent experiments, read-out: MRSA-2 MIC
[8] = Staphylococcus epidermidis, Table 3
[9] = Table 3, planktonic killing, CBD, first value of MBC/MBEC cell, read-out: MRSA-2 MBC
[10] = Table 3, planktonic killing, CBD, first value of cell, footnote c = lowest concentration tested, read-out: VRE MBC
[11] = Staphylococcus, MRSA, Table 2, 2 to 6 independent experiments, read-out: MRSA-2 MIC
[12] = Staphylococcus epidermidis, Table 2, ATCC 35984
[13] = Table 2, planktonic killing, CBD, first value of MBC/MBEC cell, read-out: MRSA-2 Clinical Isolate MBC
[14] = Table 2, read-out: MRSE ATCC 35984 MBC
[15] = Staphylococcus epidermidis, 18 h, Table 2, ATCC 35984
[16] = Table 2, planktonic killing, CBD, first value of cell, read-out: VRE ATCC 700221 MBC
[17] = Staphylococcus, MRSA, read-out: MIC
[18] = MRSA-2, change in antibacterial activity according to MIC values

SMILES	MIC [1, 7] [µM]	MIC [2, 8] [µM]	MIC ([3]; Table 3) [µM]	MBC [4, 9] [µM]	MBC ([5]; Table 3, read-out: MRSE MBC) [µM]	MBC [6, 10] [µM]	% Haemolysis at 200 μM (human red blood cells; human, 1 h, pH 7.2) [%]	further results
CCc1ccc2c(Br)cc(Br)c(O)c2n1 [A-HQ-1]	0.78 (≈ 0.258 µg/mL)	0.39 (≈ 0.129 µg/mL)	0.78 (≈ 0.258 µg/mL)	93.8 (≈ 31 µg/mL)	31.3 (≈ 10.4 µg/mL)	1.5 (≈ 0.497 µg/mL)	≤1	
N#CC(C#N)=NNc1cccc(Cl)c1 [CCCP, carbonyl cyanide m-chlorophenyl hydrazone, reference compound]				31.3 (≈ 6.4 µg/mL)	31.3 (≈ 6.4 µg/mL)			MIC [1, 11]: 3.13 µM (≈ 0.64 µg/mL); MIC ([1]; Table 3, at least three independent experiments, read-out: MRSA-2 MIC): 3.13 µM (≈ 0.64 µg/mL); MIC [2, 12]: 6.25 µM (≈ 1.28 µg/mL); MIC ([2]; Table 3): 6.25 µM (≈ 1.28 µg/mL); MBC [4, 13]: 31.3 µM (≈ 6.4 µg/mL); MBC [5, 14]: 31.3 µM (≈ 6.4 µg/mL); % Haemolysis at 200 μM (human red blood cells; Table 2, human red blood cells, 1 hour at 37° C.): 3.5%; % Haemolysis at 200 μM (human red blood cells; Table 3, human red blood cells): 3.5%
O=C(O)CN(CCN(CC(=O)O)CC(=O)O)CC(=O)O [EDTA, ethylenediaminetetraacetic acid, reference compound]				2000 (≈ 584 µg/mL)	1000 (≈ 292 µg/mL)			% Haemolysis at 200 μM (human red blood cells; Table 3, human red blood cells): 3.0%
CCCCNCc1ccc2c(Br)cc(Br)c(O)c2n1 [HQ-2]								MIC ([1]; Staphylococcus, MRSA): 3.13 µM (≈ 1.21 µg/mL); MIC ([1]; Staphylococcus, MRSA, read-out: MRSA-2 MIC): 6.25 µM (≈ 2.43 µg/mL); MIC ([2]; Staphylococcus epidermidis): 3.13 µM (≈ 1.21 µg/mL); MIC [3]: 3.13 µM (≈ 1.21 µg/mL); MIC (MRSA-2; MRSA, read-out: MIC w/Cu^2+): 3.13 µM; MIC (MRSA-2; MRSA, read-out: MIC w/Fe^2+): 3.13 µM; MIC (MRSA-2; MRSA, read-out: MIC w/Zn^2+): 1.17 µM; MBC ([4]; read-out: MRSA-2 Clinical Isolate MBC): 46.9 µM (≈ 18.2 µg/mL); MBC ([6]; read-out: VRE ATCC 700221 MBC): 15.6 µM (≈ 6.05 µg/mL)
Oc1c(Br)cc(Br)c2ccc(CNc3cccc(Cl)c3)nc12 [HQ-4]								MIC [1, 11]: 1.17 µM (≈ 0.518 µg/mL); MIC [2, 15]: 0.15 to 0.3 µM (≈ 0.0664 to 0.133 µg/mL); MIC [2, 12]: 0.3 µM (≈ 0.133 µg/mL); MIC ([3]; 18 h, Table 2, ATCC 700221): 0.39 to 0.78 µM (≈ 0.173 to 0.345 µg/mL); MIC ([3]; Table 2, ATCC 700221): 0.78 µM (≈ 0.345 µg/mL); MBC [4, 13]: 62.5 µM (≈ 27.7 µg/mL); MRSA-2 MBEC ([4]; Table 3, biofilm eradication, CBD, second value of MBC/MBEC cell): equipotent biofilm eradication activities; MBEC:MBC ratio ([5]; MRSE 35984, CBD): ~1; MBC [5, 14]: 9.38 µM (≈ 4.15 µg/mL); MBC [6, 16]: 1.5 µM (≈ 0.664 µg/mL)
Oc1c(Br)cc(Br)c2ccc(CNc3cc(Cl)cc(Cl)c3)nc12 [HQ-5]								MIC [1, 11]: 1.56 µM (≈ 0.744 µg/mL); MIC [2, 15]: 0.15 to 0.3 µM (≈ 0.0715 to 0.143 µg/mL); MIC [2, 12]: 0.3 µM (≈ 0.143 µg/mL); MIC ([3]; 18 h, Table 2, ATCC 700221): 0.39 to 0.78 µM (≈ 0.186 to 0.372 µg/mL); MIC ([3]; Table 2, ATCC 700221): 0.39 µM (≈ 0.186 µg/mL); MBC [4, 13]: 62.5 µM (≈ 29.8 µg/mL); MBC [5, 14]: 1.5 µM (≈ 0.715 µg/mL); MBC [6, 16]: 2 µM (≈ 0.954 µg/mL)
Oc1c(Br)cc(Br)c2ccc(CNc3ccc(Br)cc3)nc12 [HQ-6]								MIC [1, 11]: 3.13 µM (≈ 1.52 µg/mL); MIC [1, 17]: 4.69 µM (≈ 2.28 µg/mL); fold more potent antibacterial activities than vancomycin ([2]; MRSE, MIC, same assays): 5 fold; MIC [2, 15]: 0.15 to 0.3 µM (≈ 0.073 to 0.146 µg/mL); MIC [2, 12]: 0.15 µM (≈ 0.073 µg/mL); MIC ([3]; 18 h, Table 2, ATCC 700221): 0.39 to 0.78 µM (≈ 0.19 to 0.38 µg/mL); MIC ([3]; Table 2, ATCC 700221): 0.78 µM (≈ 0.38 µg/mL); Fold Δ (MIC w/Mg^2+) (MRSA-2; [18]): insignificant changes in antibacterial activities; Fold Δ (MIC w/Zn^2+) (MRSA-2; [18]): −6 fold; MIC (MRSA-2; MRSA-2, 200 μM ammonium iron (II) sulfate hexahydrate, read-out: MIC w/Fe^2+): 9.38 µM; MIC (MRSA-2; MRSA-2, 200 μM copper (II) sulfate, read-out: MIC w/Cu^2+): 1.13 µM; MIC (MRSA-2; MRSA-2, 200 μM magnesium (II) sulfate, read-out: MIC w/Mg^2+): 3.13 µM; MIC (MRSA-2; MRSA-2, 200 μM zinc (II) chloride, read-out: MIC w/Zn^2+): 0.78 µM; MBEC:MBC ratio ([4]; MRSA-2, CBD): equipotent killing efficiencies; MBC [4, 13]: 125 µM (≈ 60.9 µg/mL); MBC [5, 14]: 5.9 µM (≈ 2.87 µg/mL); MBC [6, 16]: 3.9 µM (≈ 1.9 µg/mL)
NC(=O)c1cnccn1 [Pyrazinamide, reference compound]				> 2000			≤1	
CCCCCNCc1ccc2c(Br)cc(Br)c(O)c2n1 [RA-HQ-2]	2.35 (≈ 0.945 µg/mL)	1.56 (≈ 0.627 µg/mL)	3.13 (≈ 1.26 µg/mL)	31.3 (≈ 12.6 µg/mL)	23.5 (≈ 9.45 µg/mL)	15.6 (≈ 6.27 µg/mL)	87.9	MIC [1, 17]: 3.13 µM (≈ 1.26 µg/mL)
Oc1c(Br)cc(Br)c2ccc(CNc3ccc(Cl)cc3)nc12 [RA-HQ-13]	0.78 (≈ 0.345 µg/mL)	0.3 (≈ 0.133 µg/mL)	0.78 (≈ 0.345 µg/mL)	31.3 (≈ 13.9 µg/mL)	31.3 (≈ 13.9 µg/mL)	1.5 (≈ 0.664 µg/mL)	17.6	
Oc1c(Br)cc(Br)c2ccc(CNc3ccc(I)cc3)nc12 [RA-HQ-14]	4.69 (≈ 2.5 µg/mL)	0.78 (≈ 0.417 µg/mL)	4.69 (≈ 2.5 µg/mL)	250 (≈ 133 µg/mL)	46.9 (≈ 25 µg/mL)	46.9 (≈ 25 µg/mL)	11.0	
Oc1c(Br)cc(Br)c2ccc(CNc3cccc(Br)c3)nc12 [RA-HQ-15]	1.56 (≈ 0.76 µg/mL)	0.2 (≈ 0.0974 µg/mL)	0.78 (≈ 0.38 µg/mL)	188 (≈ 91.6 µg/mL)	31.3 (≈ 15.2 µg/mL)	7.8 (≈ 3.8 µg/mL)	37.3	
Oc1c(Br)cc(Br)c2ccc(CNc3cc(Br)ccc3Br)nc12 [RA-HQ-17]	3.13 (≈ 1.77 µg/mL)	0.59 (≈ 0.334 µg/mL)	1.56 (≈ 0.883 µg/mL)	750 (≈ 424 µg/mL)	188 (≈ 106 µg/mL)	31.3 (≈ 17.7 µg/mL)	7.4	
Oc1c(I)cc(I)c2ccc(CNc3ccccc3)nc12 [RA-HQ-22]	> 100	4.69 (≈ 2.35 µg/mL)	9.38 (≈ 4.71 µg/mL)	> 1000	250 (≈ 126 µg/mL)	31.3 (≈ 15.7 µg/mL)	3.0	
